{"source": "patent US6458758B1", "about": "“Compositions and methods utilizing nitroxides in combination with biocompatible macromolecules” (Synzyme Technologies, Inc., priority 1993, dated 2002)", "key": {"[1]": {"tested_on": "Chinese Hamster V79 cells", "test": "Radioprotection of Chinese Hamster V79 cells at 12 Gray", "assay_type": "cell-based", "settings": "12 Gray x-ray; cells pretreated 10 minutes prior to irradiation"}, "[2]": {"test": "In vivo EPR of mouse skin: intradermal PNA and intravenous ^15N-TPL", "procedure": "Thirty minutes later the spectrum in (C) was recorded.\nThe intensity of the low field ^15N-TPL peak is plotted against time. […].\nFIGS. 42A and 42B show the pharmacokinetics of intravenous ^15N-TPL (1% v/w) measured at a patch of skin on the abdomen of the mouse.\nA custom-built bridged loop-gap surface resonator, absorption microwave bridge was used for in vivo EPR spectroscopy at 1.25 GHz (L-band) in the mouse. […] The anesthetized mouse was placed in a ‘sandwich’ of two templates which allowed it to be placed on the loop-gap surface resonator, absorption microwave bridge in either the supine position, for spectroscopy of the back of the head, or in the prone position for spectroscopy of the abdomen. A tail vein cannula was used for intravenous injection of ^15N-TEMPOL; this injection site was remote from the resonator.\nThe spectrum was made 1 minute after ^15N-TPL was injected via the tail vein. […] FIG. 40B was recorded at approximately ⅕ of the instrument gain used in FIG. 40A in order to accommodate the ^15N-TPL signal."}, "[3]": {"tested_on": "mice", "settings": "cited from earlier work"}, "[4]": {"test": "In vivo ESR of mouse tail after iv nitroxide-labelled HBOC plus ^15ND17-TEMPOL", "settings": "0.5 ml iv via cannula", "procedure": "FIG. 7A is the ESR spectrum of the nitroxide signal recorded from the mouse tail approximately 10 minutes after intravenous infusion of 0.5 ml of the sample shown in FIG. 6. FIG. 7B is the time dependent (scan time 30 minutes) decrease in the center peak (Mo) signal intensity of FIG. 7A recorded at 10 times of the instrument sensitivity. FIG. 7C is a continuation of FIG. 7B at the end of its scan.\nFIG. 8A is a series of 5 ESR spectrum recorded at 0.5 minute intervals, the magnetic field strength was increased by 2 Gauss in between each scan to display the decrease in signal intensity as a function of time. […]\nThe separation of the resonance peaks permits the simultaneous monitoring of free radical or enzyme mimic activities involving the small molecular weight nitroxide (TEMPOL) and its macromolecular conjugate in both in vitro and in vivo (murine) reactions. […] First, the approximate plasma half-life of a small molecular weight nitroxide (^15ND17-TEMPOL see FIG. 4C) and a large molecular weight 4-(2-bromoacetamido)-TEMPOL-labelled HBOC (see FIG. 4B) are determined by preparing a mixture of the two and adjusting the ESR signal intensity to be approximately the same (see FIG. 6). […] The mouse tail was inserted into an ESR cavity and the spectrum was recorded within 10 minutes after injection (see FIG. 7A). […]"}, "[5]": {"tested_on": "leukocyte rolling and adhesion to endothelial cells", "test": "Cigarette smoke induced leukocyte rolling, adhesion and aggregate formation, dorsal skinfold chamber", "assay_type": "in vivo, Syrian Golden hamsters", "from_the_text": "The interactions of leukocytes with endothelial cells and platelets are an indicator of the microcirculatory response to several adverse physiological conditions, ranging from localized and systemic ischemia/reperfusion injury, rejection of organ grafts, and the response to the organism to various oxidizing novae. See also Lehr et al., PNAS, […]. The mediator role of reactive oxygen species has been documented in many in vitro and in vivo models and, as a consequence, antioxidants and radical scavengers have been applied to counteract leukocyte activation, aggregation, and adhesion to endothelium and the subsequent microcirculatory dysfunction."}, "[6]": {"test": "Superoxide oxidase / dismutase activity of nitroxide-labelled hemoglobin on storage (ESR)", "assay_type": "biochemical", "from_the_text": "For example, an o-raffinose polymerized hemoglobin solution that has been labelled with 4-amino-TEMPO is stored in its oxygenated state in a sealed glass container (FIG. 1A). In such a state, the rate of superoxide anion and met-hemoglobin formation in solution is sufficiently rapid that the conversion of the nitroxide to its hydroxylamine derivatives may be conveniently monitored (See Equation [4] and compare FIGS. 1A and 1B). Equation 4 represents that the conversion of nitroxide to its diamagnetic hydroxyl derivative is coupled to the conversion of the superoxide anion back to molecular oxygen. […] (FIG. 1B). The nitroxide is considered to have performed a “superoxide oxidase”-like activity when it is converted to its hydroxylamine derivative in the presence of hemoglobin.\nKnowing that under the experimental conditions described in FIGS. 1A and 1B the nitroxide is fully converted to hydroxylamine (See Equation [4]), the nitroxide may be regenerated by simply providing more superoxide anion as shown in Equation 5. […] This observation is consistent with the reconversion of the hydroxylamine derivative to nitroxide coupled with the formation of hydrogen peroxide from superoxide anion."}, "[7]": {"test": "EPR signal of ^15N-TEMPOL in isolated ischemic rat heart", "settings": "2 mM TPL", "procedure": "The solid lines are double-exponential fittings to the observed intensity data. The half-lives are 0.4 minutes, 2.9 minutes (▪), and 3.3 minutes, 30.1 minutes (●) respectively.\nUsing methods essentially as described in Kuppusamy et al. Proc. Natl. Act. Sci., USA Vol. 91, pgs.\nIn an EPR imaging study, the rat heart was perfused with a solution containing nitroxide with or without polynitroxide albumin, followed by cessation of perfusate flow in order to create ischemia. […] It can be seen the signal intensity undergoes a biphasic decay and that the presence of polynitroxide albumin greatly slows the decay. By thus stabilizing the TEMPOL signal, polynitroxide albumin allows high-quality EPR images to be obtained over a prolonged period of time. Referring to FIGS. 22-23, a three-dimensional EPR image of the ischemic heart can still be obtained after 156 minutes of global ischemia. […] This illustrates that the presence of PNA allows much better imaging than is possible with TEMPOL alone, in terms both of resolution and signal persistence.\nIn FIG. 24, the intensity of the EPR signal is shown as a function of the duration of ischemia. In the lower curve, 2 mM of TEMPOL is infused into an ischemic heart. The upper curve traces the original intensity of 2 mM TEMPOL together with a polynitroxide albumin (4 g/dl of albumin at 42 moles of TEMPOL per mole of albumin). […]"}, "[8]": {"tested_on": "C57 mice", "test": "30-day survival of C57 mice after 10 Gray irradiation", "assay_type": "in vivo", "settings": "TPL 200 mg/kg ip, PNA 0.5 ml/mouse iv where given, 10 mice per group"}, "[9]": {"test": "Rat plasma TPL after intravenous injection (EPR spin density)", "assay_type": "in vivo", "settings": "100 mM solution, 10% v/v top load", "procedure": "FIG. 14 is a plot showing time dependence of rat plasma concentrations of TPL after intravenous injections. Plasma samples were obtained from rats described in FIG. 13. TPL concentrations were determined from EPR spin density measurements."}, "[10]": {"test": "in vivo", "settings": "iv"}, "[11]": {"tested_on": "C3H mice", "settings": "cited from earlier work"}, "[12]": {"tested_on": "conscious rats", "test": "Mean arterial pressure response in conscious rats", "source_text": "The rats were allowed to recover from surgery and anesthesia for approximately 7 days prior to study.\nThe rats were allowed to recover from surgery and anesthesia for approximately seven days prior to study."}, "[13]": {"test": "Plasma levels of TPL with or without PNA in C57 mice (EPR)", "settings": "TPL 275 mg/kg ip alone"}}, "note": "Where two headings read alike, the source gives them in different places."}
{"molecule": "CC1(C)CC(O)CC(C)(C)N1O", "note": "[TPH]", "values": [{"measurement": "surviving fraction of V79 cells", "setting": "[1]", "value": 2, "unit": "%"}]}
{"molecule": "CC1(C)CC(O)CC(C)(C)[15N]1[O]", "note": "[^15N-TPL]", "values": [{"measurement": "local half-life in skin", "setting": "[2]; abdomen skin, absence of intradermal PNA", "value": 0.5, "unit": "min"}, {"measurement": "time the increased ^15N-TPL signal was maintained", "setting": "[2]; abdomen skin, after intradermal injection of 100 μl PNA", "value": "at least 30 minutes"}, {"measurement": "decay of ^15N-TPL to ^15N-TPH", "setting": "[2]; absence of intradermal PNA", "value": "complete"}, {"measurement": "time to maximum ^15N-TPL signal after tail vein injection", "setting": "[2]; measured at site of intradermal PNA injection on the back", "value": "less than 2 minutes"}, {"measurement": "residual steady-state level as share of the initial ^15N-TPL concentration", "setting": "[2]; site of intradermal PNA injection, assuming complete distribution in total body water", "value": 17, "unit": "%"}, {"measurement": "time the ^15N-TPL signal remained stable", "setting": "[2]; skin on the back, in the presence of intradermal PNA", "value": "at least 30 minutes"}, {"measurement": "plasma half-life (reduction to TPH)", "setting": "mouse, 0.5 ml of 40 mM iv, no PNA", "value": 2, "unit": "min"}]}
{"molecule": "CC1(C)CCCC(C)(C)N1[O]", "note": "[TEMPO, 2,2,6,6 tetramethylpiperidine-1-oxyl]", "values": [{"measurement": "LD50", "setting": "[3]; mice, intraperitoneal", "value": 341, "unit": "mg/kg"}, {"measurement": "maximum tolerated intraperitoneal dose", "setting": "[3]; mice", "value": 275, "unit": "mg/kg"}]}
{"molecule": "[2H]C([2H])([2H])C1(C([2H])([2H])[2H])[15N]([O])C(C([2H])([2H])[2H])(C([2H])([2H])[2H])C([2H])([2H])C([2H])(O)C1([2H])[2H]", "note": "[^15ND17-TEMPOL]", "values": [{"measurement": "time to disappearance of ESR signal after injection", "setting": "[4]", "value": "≤ 2.5", "unit": "min"}]}
{"molecule": "Hemoglobin-based oxygen carrier (HBOC), DBBF-Hb: purified hemoglobin cross-linked with bis(3,5 dibromosalicyl)fumarate", "values": [{"measurement": "aggregate formation", "setting": "[5]; 15 MINUTES", "value": "3.0 ± 1.7 /30 sec"}, {"measurement": "arteriolar sticking", "setting": "[5]; 15 MINUTES", "value": "31.9 ± 26.4 /mm^2"}, {"measurement": "venular rolling", "setting": "[5]; 15 MINUTES", "value": "7.9 ± 2.8", "unit": "%"}, {"measurement": "venular sticking", "setting": "[5]; 15 MINUTES", "value": "66.0 ± 43.2 /mm^2"}, {"measurement": "aggregate formation", "setting": "[5]; 60 MINUTES", "value": "4.5 ± 2.6 /30 sec"}, {"measurement": "arteriolar rolling", "setting": "[5]; 60 MINUTES", "value": "3.8 ± 2.9 /mm"}, {"measurement": "arteriolar sticking", "setting": "[5]; 60 MINUTES", "value": "42.0 ± 32.1 /mm^2"}, {"measurement": "venular rolling", "setting": "[5]; 60 MINUTES", "value": "9.2 ± 3.8", "unit": "%"}, {"measurement": "venular sticking", "setting": "[5]; 60 MINUTES", "value": "101.5 ± 76.9 /mm^2"}, {"measurement": "aggregate formation", "setting": "[5]; BASELINE", "value": "0.3 ± 0.5 /30 sec"}, {"measurement": "arteriolar rolling", "setting": "[5]; BASELINE", "value": "0.3 /mm"}, {"measurement": "arteriolar sticking", "setting": "[5]; BASELINE", "value": "0.0 /mm^2"}, {"measurement": "venular rolling", "setting": "[5]; BASELINE", "value": "5.8 ± 1.2", "unit": "%"}, {"measurement": "venular sticking", "setting": "[5]; BASELINE", "value": "0.0 ± 0.0 /mm^2"}, {"measurement": "leukocyte activation", "setting": "[5]; cigarette smoke, compared with saline-treated controls", "value": "no effect"}]}
{"molecule": "4-amino-TEMPO labelled o-raffinose polymerized hemoglobin: o-raffinose polymerized hemoglobin labelled with 4-amino-TEMPO", "values": [{"measurement": "nitroxide signal after storage of sample diluted with equal volume of unlabelled hemoglobin", "setting": "[6]; 30 days of cold storage at 4° C.", "value": "partially regenerated"}, {"measurement": "ESR resonance peaks after storage (conversion of nitroxide to hydroxylamine)", "setting": "[6]; oxygenated, sealed glass container, 30 days at 4° C.", "value": "complete disappearance of the resonance peaks"}]}
{"molecule": "CC1(C)CC(O)CC(C)(C)N1[O]", "note": "[TPL, 4-hydroxy-2,2,6,6-tetramethylpiperidine-1-oxyl]", "values": [{"measurement": "half-life at 2 mM", "setting": "[7]; read-out: half-life of EPR signal, first phase of double-exponential fit", "value": 0.4, "unit": "min"}, {"measurement": "half-life at 2 mM", "setting": "[7]; read-out: half-life of EPR signal, second phase of double-exponential fit", "value": 2.9, "unit": "min"}, {"measurement": "30-day survival", "setting": "[8]", "value": 10, "unit": "%"}, {"measurement": "half-life", "setting": "[9]", "value": "< 1", "unit": "min"}, {"measurement": "time to maximum peak intensity in mouse tail", "setting": "repeat iv injection of TEMPOL", "value": "approximately 10 seconds"}, {"measurement": "half-life", "setting": "[10]; C57, mouse", "value": "~0.833", "unit": "min"}, {"measurement": "half-life", "setting": "[10]; mouse", "value": "~2", "unit": "min"}, {"measurement": "maximal tolerated dose administered intraperitoneally", "setting": "[3]; C3H mice", "value": 275, "unit": "mg/kg"}, {"measurement": "maximal TPL levels in whole blood", "setting": "[11]; 275 mg/kg ip, 5-10 minutes after injection", "value": "~150", "unit": "µg/mL"}, {"measurement": "dose of radiation at which 50% of treated mice die within 30 days", "setting": "[11]; TPL 275 mg/kg ip 5-10 minutes before whole body radiation", "value": 9.97, "unit": "Gray"}, {"measurement": "vasodilatory effect", "setting": "[12]; 10% v/v top load, PNA 5 g/dl, TPL 100 mM", "value": "no significant vasodilatory effect"}, {"measurement": "antihypertensive effect when injected alone with HBOC", "setting": "[12]; conscious rats", "value": "no antihypertensive effect"}, {"measurement": "maximum plasma level of TPL relative to ~100 mg/kg ip in the presence of PNA", "setting": "[13]", "value": "approximately one-fifth"}]}
